# Source: patent publication US8097585B2, “Methods of treating inflammation by administration of heme oxygenase-1 and products of heme degradation” (priority 2002, dated 2012)
# Columns and labels:
# IL-6 = experiment: Real time RT-PCR of graft muscularis after SITx, IL-6; assay type: in vivo, LEW rats; conditions: figure legend 23A-23D, graft muscularis 4 hours after transplantation
# Protocol: Small Intestinal Transplantation. Orthotopic small intestinal transplantation (SITx) was performed in syngeneic Lewis rats. SITx with caval drainage was performed using a previously described procedure (Murase et al., in Handbook of Animal Models in Transplantation Research, Cramer et al., Eds. CRC Press, Boca Raton, Fla., pp. 203-213 (1994)). […] The graft was perfused via the aortic segment with 5 ml chilled Ringer's lactate solution, and the intestinal lumen was irrigated with 20 ml of cold saline solution containing 0.5% neomycin-sulfate (Sigma, St. Louis, Mo.). End-to-side anastomoses between the graft aorta and the recipient infrarenal aorta, and between the graft portal vein and recipient vena cava, were performed with 10-0 Novafil™ suture. The cold ischemic time was 1 hour. The entire recipient intestine was removed and the enteric continuity was restored by proximal and distal end-to-end intestinal anastomoses. Recipient animals were given 20 mg/day prophylactic cefamandole nafate for 3 postoperative days. Transplanted recipients were given water 3 hours after surgery, and were fed 24 hours after surgery.
# (§1) SYBR green real time RT-PCR. The effects of administration of biliverdin on transplant-induced pro-inflammatory and anti-inflammatory gene expression were assessed in muscularis extracts by RT-PCR Biliverdin ([…], i.p.) was administered to both the donor and recipient three hours preoperatively. The muscularis externae was collected from normal intestine and transplanted grafts 4 hours postoperatively and snap frozen in liquid nitrogen. […] Equal aliquots (5 μg) of total RNA from each sample were quantified by spectrophotometry (wavelength […]) and aliquoted at a concentration of 40 ng/μl. Peak mRNA expression was quantified in duplicate by SYBR Green two-step, real-time RT-PCR. […] Real-time PCR data were plotted as the ΔRn fluorescence signal versus the cycle number. […] Quantification of mRNA expression was normalized to GAPDH and calculated relative to control using the comparative CT method (Schmittgen et al., J. Biochem. Biophys. Methods 46(1-2):69-8, 2000). […]
# DSS-colitis = DSS-colitis (acute colitis) mouse model: weight loss, DAI, symptoms, crypt score; assay type: in vivo, C57BL/6 mice
# Source text: Animals. Pathogen-free male C57BL/6 mice, 4-6 weeks of age (Taconic; C57BL/6×129 svj strain) were used in this example. Mice were kept for one week at 4 mice/cage and fed normal laboratory chow and drinking water ad libitum prior to the experiments. All mice weighed between 22.5 g and 27.7 g at the beginning of the trial. The animal experimentation protocol was reviewed and approved by the Animal Care and Use Committees of the Beth Israel Deaconess Medical Center.
# Induction of Colitis. Colitis was induced by feeding mice 5% (wt/v) dextran sodium sulfate (DSS) (MW 40,000; ICN Biomedicals Inc., OH), dissolved in distilled water, for a period of 7 days. The resulting condition was termed “DSS-colitis.” Control animals were fed distilled water ad libitum. The mortality rate in the control group and the CO-treated group was 10% (2/20) and 14% (2/14), respectively. These animals were excluded from the statistical analysis. In the other groups, no mortality occurred during 7 days of 5% DSS treatment.
# Experimental Reagents and Treatment Protocol. Cobalt protoporphyrin (CoPPIX), zinc protoporphyrin (ZnPPIX, Porphyrin Products, Logan, Utah) and biliverdin dihydrochloride (ICN Biomedicals Inc., OH) were dissolved in a small amount 0.2 M NaOH, subsequently adjusted to a pH of 7.4 with 1 M HCl, and diluted in 0.9% NaCl. The stock solutions (CoPPIX and ZnPPIX=1 mg/ml, biliverdin=10 mM) were aliquoted and kept at −70° C. until used. Light exposure was limited as much as possible. CoPPIX (5 mg/kg), ZnPPIX (20 mg/kg) and biliverdin (50 μmol/kg) were administered to the mice intraperitoneally (i.p.) 24 hours before induction of DSS-colitis and daily thereafter. Desferoxamine (DFO) was prepared in imidazole buffer (50 mM imidazole, 220 mM NaCl, pH 7.4). DFO was injected subcutaneously (s.c.) twice daily (125 mg/kg) or infused i.p. (130 mg/kg/day; pumping rate 0.5 μl/hour for 8 days) by miniosmotic Alzet™ pumps (Alza Corporation, Palo Alto, Calif.) (Postma et al., Exp. Parasitol. 89(3):323-30 1998). The pumps were installed i.p. 24 hours before induction of colitis. When animals were sacrificed at day 7 of DSS treatment, the pumps were removed and evaluated to determine if DFO application had taken place.
# CO gas was administrated exogenously by putting animals in a CO exposure chamber (Otterbein et al., Nat. Med. 6(4):422-8, 2000). Briefly, CO at a concentration of 1% (10,000 parts per million (ppm)) in compressed air was mixed with balanced air (21% oxygen) in a stainless steel mixing cylinder before entering the exposure chamber. CO concentrations were controlled by varying the flow rates of CO in a mixing cylinder before delivery to the chamber. Because the flow rate is primarily determined by the O2 flow, only the CO flow was changed to deliver the final concentration to the exposure chamber. A CO analyzer (Interscan Corporation, Chatsworth, Calif.) was used to measure CO levels continuously in the chamber. Mice were placed in the chamber 24 hours before the induction of the colitis and were kept in the exposure chamber during the whole period of the experiment (total of 8 days). […] Animals were removed daily from the chamber to assess weight and stool.
# Evaluation of Symptoms of Colitis. All animals were evaluated clinically on a daily basis. The evaluation of each animal included a measurement of weight, hemoccult positivity and examination of stool for the presence of gross blood and stool consistency. The disease activity index (DAI) was calculated by scoring percent weight loss, intestinal bleeding (no blood; occult blood=hemoccult+; gross blood) and stool consistency (normal stool=well-formed pellets; loose stool=pasty and semiformed stools; diarrhea=liquid stool that stuck to the anus) (Table 1).
# The animals were sacrificed, and the whole colon from the colo-cecal junction to the anal verge was removed and gently cleaned of stool. […]
# IL-1β = experiment: Real time RT-PCR of graft muscularis after SITx, IL-1β; assay type: in vivo, LEW rats; conditions: figure legend 23A-23D, graft muscularis 4 hours after transplantation
# Protocol: Small Intestinal Transplantation. Orthotopic small intestinal transplantation (SITx) was performed in syngeneic Lewis rats. SITx with caval drainage was performed using a previously described procedure (Murase et al., in Handbook of Animal Models in Transplantation Research, Cramer et al., Eds. CRC Press, Boca Raton, Fla., pp. 203-213 (1994)). […] The graft was perfused via the aortic segment with 5 ml chilled Ringer's lactate solution, and the intestinal lumen was irrigated with 20 ml of cold saline solution containing 0.5% neomycin-sulfate (Sigma, St. Louis, Mo.). […]
# as §1, with “preoperatively.” for “preoperatively. The muscularis externae was collected from normal intestine and transplanted grafts 4 hours postoperatively and snap frozen in liquid nitrogen.”
smiles,measurement,setting,value
"[C-]#[O+] [CO, carbon monoxide]",mean expression of IL-6 mRNA,IL-6,significantly reduced
same,mortality rate,"DSS-colitis; 7 days of 5% DSS, CO exposure chamber 250-400 ppm",14%
same,"effect on DSS-colitis (weight loss, DAI)","DSS-colitis; continuous exposure to 200-400 ppm CO, compared to the control",did not have an effect
same,mean expression of IL-1b mRNA,IL-1β,significantly reduced
